In patent US5399553A, “Tricyclic compound or salts thereof, method for producing the same and anti-microbial agent containing the same” (Wakunaga Seiyaku Kabushiki Kaisha, priority 1990, dated 1995):
In brackets after ≈: the same amount, converted by molar mass.

Columns and labels:
P. aeruginosa (IFO 3445) = experiment: Antimicrobial activity, minimum inhibitory concentration (MIC), P. aeruginosa; type: cell-based; details: Pseudomonas aeruginosa, IFO3445
Protocol: (§1) The minimum inhibitory concentration (MIC: μg/ml) of typical compounds represented by general formula (1) of the present invention is measured by the standard method of Japanese literature "Chemotherapy, Volume 29, No. 1, pp. 76-79, 1981". The results are shown in Table 1 in which compound numbers are the same as those indicated in Examples.

[1] = Recovery in urine after oral administration (absorption and excretion); type: in vivo, male JCL-SD rats; details: 20 mg/kg, rat, 20 mg/10 ml/kg in 0.5% methylcellulose, disk method, read-out: Excretion Rate In Urine
Protocol: (§2) The absorbability and excretion after oral administration of the compounds, of the present invention were tested by measuring recovery in urine and in bile as follows.
To a group of three male JCL-SD rats (6 weeks old) fasted overnight, a subject compound was prepared to 20 mg/10 ml/kg with 0.5% of methylcellulose solution and was orally administrated. The sampling was carried out by collecting urine in 0 to 6 hours and 6 to 24 hours. The concentration of the subject compound in the urine was examined by a disk method by using Bacillus subtilis ATCC 33 as a testing bacillus to obtain an excretion rate in urine for 24 hours.

[2] = tested on: E. coli NIH JC-2 (IFO 12734); experiment: Antimicrobial activity, minimum inhibitory concentration (MIC), E. coli NIH JC-2; type: cell-based; details: Escherichia coli, IFO12734
Protocol: as §1

[3] = Recovery in bile after oral administration (absorption and excretion); type: in vivo, rats; details: 20 mg/kg, rat, prepared as for urine (20 mg/10 ml/kg), disk method, read-out: Excretion Rate In Bile
Protocol: as §2
A subject compound was prepared in the same manner as the recovery in urine and was orally administrated to the rats and bile was collected by using a polyethylene tube inserted into the choledochus in 24 hours. The concentration of the subject compound in the bile sample was examined in the same manner as the recovery in urine to obtain an excretion rate in bile for 24 hours.

[4] = tested on: S. aureus 209p (IFO 12732); experiment: Antimicrobial activity, minimum inhibitory concentration (MIC), S. aureus 209p; type: cell-based; details: Staphylococcus aureus
Protocol: as §1

| SMILES | MIC (P. aeruginosa (IFO 3445)) [µg/mL] | dose excreted at 24 h [1] [%] | MIC [2] [µg/mL] | dose excreted at 24 h [3] [%] | MIC [4] [µg/mL] |
| --- | --- | --- | --- | --- | --- |
| C[C@H]1CN(c2c(F)cc3c(=O)c(C(=O)O)cn4c3c2CCN4C)C[C@H]1N (single isomer, unassigned) [Compound 30, 4-(cis (-) 3-Amino-4-methylpyrrolidin-1-yl)-5-fluoro-2,3-dihydro-1-methyl-7-oxo-1H,7H-pyrido[3,2,1-ij]cinnoline-8-carboxylic acid] | 0.2 (≈ 0.555 µM) | 59.7 | 0.025 (≈ 0.0694 µM) | 3.8 | 0.1 (≈ 0.277 µM) |
| CN1CCc2c(OCC3(N)CC3)c(F)cc3c(=O)c(C(=O)O)cn1c23 [Compound 73] | 0.78 (≈ 2.25 µM) | – | 0.1 (≈ 0.288 µM) | – | 0.78 (≈ 2.25 µM) |
